Assays:
Assay type in all cases: in vivo
[1] = system: Alopecurus myosuroides (ALOMY); test: Pre-emergence biological efficacy, glasshouse pot test; conditions: 312 h, pre-emergence, rate 1,000 g/ha, evaluated after 13 days (100=total damage to plant; 0=no damage), read-out: Percentage damage caused to weed species, ALOMY
Summary of the method: (§1)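 Standard soil, pots, sown then sprayed at day 1 with 1000 or 250 g/ha test compound. Glasshouse: 24/16 °C, 14 h photoperiod, 65% humidity, twice-daily watering. Evaluation day 13, 0–100 damage score.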

[2] = system: Amaranthus retoflexus (AMARE); test: as above; conditions: Amaranthus retroflexus, 312 h; pre-emergence, rate 1,000 g/ha, evaluated after 13 days (100=total damage to plant; 0=no damage); read-out: Percentage damage caused to weed species, AMARE
Summary of the method: as §1

[3] = system: Echinochloa crus-galli (ECHCG); test: as above; conditions: 312 h, pre-emergence, rate 1,000 g/ha, evaluated after 13 days (100=total damage to plant; 0=no damage), read-out: Percentage damage caused to weed species, ECHCG
Summary of the method: as §1

[4] = system: Ipomea hederaceae (IPOHE); test: as above; conditions: Ipomoea hederacea, 312 h; pre-emergence, rate 1,000 g/ha, evaluated after 13 days (100=total damage to plant; 0=no damage); read-out: Percentage damage caused to weed species, IPOHE
Summary of the method: as §1

Setaria faberi (SETFA) [5] = test: as above; conditions: 312 h, pre-emergence, rate 1,000 g/ha, evaluated after 13 days (100=total damage to plant; 0=no damage), read-out: Percentage damage caused to weed species, SETFA
Summary of the method: as §1

Solanum nigrum (SOLNI) [6] = test: as above; conditions: 312 h, pre-emergence, rate 1,000 g/ha, evaluated after 13 days (100=total damage to plant; 0=no damage), read-out: Percentage damage caused to weed species, SOLNI
Summary of the method: as §1

[7] = system: Alopecurus myosuroides (ALOMY); test: Post-emergence biological efficacy, glasshouse pot test; conditions: 312 h, Rate 1,000 g/ha, post-emergence spray, evaluated after 13 days (100=total damage to plant; 0=no damage to plant), read-out: Percentage damage caused to weed species, post-emergence, ALOMY
Summary of the method: (§2)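 Scored 13 days after spraying on a 0 (no damage) to 100 (total damage) scale. Treatment was a post-emergence spray at 1000 or 250 g/ha, from acetone/water 50:50 plus 0.5% Tween 20, onto 8-day-old plants in soil pots. Growth at 24/16° C, 14 h photoperiod, 65% humidity, watered twice daily.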

[8] = system: Amaranthus retoflexus (AMARE); test: as above; conditions: Amaranthus retroflexus, 312 h; Rate 1,000 g/ha; post-emergence spray; evaluated after 13 days (100=total damage to plant; 0=no damage to plant); read-out: Percentage damage caused to weed species, post-emergence, AMARE
Summary of the method: as §2

[9] = system: Echinochloa crus-galli (ECHCG); test: as above; conditions: 312 h, Rate 1,000 g/ha, post-emergence spray, evaluated after 13 days (100=total damage to plant; 0=no damage to plant), read-out: Percentage damage caused to weed species, post-emergence, ECHCG
Summary of the method: as §2

[10] = system: Ipomea hederaceae (IPOHE); test: as above; conditions: Ipomoea hederacea, 312 h; Rate 1,000 g/ha; post-emergence spray; evaluated after 13 days (100=total damage to plant; 0=no damage to plant); read-out: Percentage damage caused to weed species, post-emergence, IPOHE
Summary of the method: as §2

Setaria faberi (SETFA) [11] = test: as above; conditions: 312 h, Rate 1,000 g/ha, post-emergence spray, evaluated after 13 days (100=total damage to plant; 0=no damage to plant), read-out: Percentage damage caused to weed species, post-emergence, SETFA
Summary of the method: as §2

Solanum nigrum (SOLNI) [12] = test: as above; conditions: 312 h, Rate 1,000 g/ha, post-emergence spray, evaluated after 13 days (100=total damage to plant; 0=no damage to plant), read-out: Percentage damage caused to weed species, post-emergence, SOLNI
Summary of the method: as §2

`COC(=O)c1nc(C2CC2)nc(N(C)Cc2cccnc2)c1Cl` [Compound 5-156, 5-Chloro-2-cyclopropyl-6-methoxycarbonyl-4-(N-methyl-N-pyridin-3-ylmethyl-amino)pyrimidine] showed a pest or weed control at 1000 g/ha [1] of 10%, a pest or weed control at 1000 g/ha [2] of 90% and a pest or weed control at 1000 g/ha [3] of 0%. The pest or weed control at 1000 g/ha [4] was 60%, the pest or weed control at 1000 g/ha (Setaria faberi (SETFA) [5]) was 0% and the pest or weed control at 1000 g/ha (Solanum nigrum (SOLNI) [6]) was 20%. The pest or weed control at 1000 g/ha [7] was 30%, the pest or weed control at 1000 g/ha [8] was 100% and the pest or weed control at 1000 g/ha [9] was 20%. For the same molecule, the pest or weed control at 1000 g/ha [10] was 80%, the pest or weed control at 1000 g/ha (Setaria faberi (SETFA) [11]) was 60% and the pest or weed control at 1000 g/ha (Solanum nigrum (SOLNI) [12]) was 80%.

`COC(=O)c1nc(-c2ccc(F)cc2)nc(NCc2ccco2)c1Cl` [Compound 242-48, 5-Chloro-2-(4-fluorophenyl)-4-(furan-2-yl-methyl-amino)-6-methoxy-carbonylpyrimidine] showed a pest or weed control at 1000 g/ha [1] of 10%, a pest or weed control at 1000 g/ha [2] of 100% and a pest or weed control at 1000 g/ha [3] of 0%. For the same molecule, the pest or weed control at 1000 g/ha [4] was 20%, the pest or weed control at 1000 g/ha (Setaria faberi (SETFA) [5]) was 0% and the pest or weed control at 1000 g/ha (Solanum nigrum (SOLNI) [6]) was 20%. The pest or weed control at 1000 g/ha [7] was 20%, the pest or weed control at 1000 g/ha [8] was 100% and the pest or weed control at 1000 g/ha [9] was 20%. For the same molecule, the pest or weed control at 1000 g/ha [10] was 60%, the pest or weed control at 1000 g/ha (Setaria faberi (SETFA) [11]) was 20% and the pest or weed control at 1000 g/ha (Solanum nigrum (SOLNI) [12]) was 50%.

Work on `COC(=O)c1nc(-c2ccc(Cl)cc2OC)nc(NCc2ccco2)c1Cl` [Compound 214-48, 5-Chloro-2-(4-chloro-2-methoxyphenyl)-4-(furan-2-yl-methyl-amino)-6-methoxy-carbonylpyrimidine] yielded a pest or weed control at 1000 g/ha [1] of 20%, a pest or weed control at 1000 g/ha [2] of 100% and a pest or weed control at 1000 g/ha [3] of 0%. It also gave a pest or weed control at 1000 g/ha [4] of 0%, a pest or weed control at 1000 g/ha (Setaria faberi (SETFA) [5]) of 10% and a pest or weed control at 1000 g/ha (Solanum nigrum (SOLNI) [6]) of 20%. The pest or weed control at 1000 g/ha [7] was 30%, the pest or weed control at 1000 g/ha [8] was 100% and the pest or weed control at 1000 g/ha [9] was 0%. It also gave a pest or weed control at 1000 g/ha [10] of 30%, a pest or weed control at 1000 g/ha (Setaria faberi (SETFA) [11]) of 10% and a pest or weed control at 1000 g/ha (Solanum nigrum (SOLNI) [12]) of 70%.

`CCN(Cc1cccs1)c1nc(C2CC2)nc(C(=O)OC)c1Cl` [Compound 6-140, 5-Chloro-2-cyclopropyl-4-(N-ethyl-N-thiophen-2-ylmethyl-amino)6-methoxycarbonyl-pyrimidine] gave a pest or weed control at 1000 g/ha [1] of 10%, a pest or weed control at 1000 g/ha [2] of 80% and a pest or weed control at 1000 g/ha [3] of 20%. The pest or weed control at 1000 g/ha [4] was 80%, the pest or weed control at 1000 g/ha (Setaria faberi (SETFA) [5]) was 0% and the pest or weed control at 1000 g/ha (Solanum nigrum (SOLNI) [6]) was 30%. For the same molecule, the pest or weed control at 1000 g/ha [7] was 40%, the pest or weed control at 1000 g/ha [8] was 100% and the pest or weed control at 1000 g/ha [9] was 40%. For the same molecule, the pest or weed control at 1000 g/ha [10] was 100%, the pest or weed control at 1000 g/ha (Setaria faberi (SETFA) [11]) was 70% and the pest or weed control at 1000 g/ha (Solanum nigrum (SOLNI) [12]) was 80%.

From patent US20110086759A1, “CHEMICAL COMPOUNDS” (SYNGENTA CROP PROTECTION, INC., priority 2007, published 2011)
